Results on one compound are retold here after paper PMC8360157, “The chemical compound ‘Heatin’ stimulates hypocotyl elongation and interferes with the Arabidopsis NIT1‐subfamily of nitrilases” (The Plant Journal, 2021).

For the assay, the target named is T1, NIT1 (NITRILASE1) (Arabidopsis thaliana, UniProt P32961).
T1 construct: recombinant, 6xHis-tagged, expressed in Escherichia coli, (NH4)2SO4 precipitation, Ni-NTA and PD-10 purified; tag cleavage not mentioned
T1 sequence (P32961 2-346): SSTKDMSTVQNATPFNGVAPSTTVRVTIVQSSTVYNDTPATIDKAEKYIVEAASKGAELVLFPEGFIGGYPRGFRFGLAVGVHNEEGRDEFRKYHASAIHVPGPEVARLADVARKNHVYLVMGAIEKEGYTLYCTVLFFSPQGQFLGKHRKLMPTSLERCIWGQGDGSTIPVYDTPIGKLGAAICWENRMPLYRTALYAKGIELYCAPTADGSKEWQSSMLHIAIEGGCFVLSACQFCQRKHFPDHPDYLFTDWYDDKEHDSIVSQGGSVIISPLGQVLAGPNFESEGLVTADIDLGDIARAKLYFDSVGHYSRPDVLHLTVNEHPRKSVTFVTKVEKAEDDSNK
The assay is described as follows: Berthelot colorimetric ammonia assay; IC50 by linear-regression interpolation. The class given is biochemical.

For orientation: IC50 means the concentration that inhibits the measured activity by half. Low values mean higher potency, high ones lower potency. Regarding `CC(Nc1cccc2ccccc12)C(=O)NN=Cc1c(O)ccc2ccccc12` (stereo not shown) [D, N'‐[(2‐hydroxy‐1‐naphthyl)methylene]‐2‐(1‐naphthylamino)propanohydrazide], the half-maximal inhibitory concentration (IC50) was roughly 20.7 µM.
